Test results from patent publication US20030044399A1, “Method of treatment” (SmithKline Beecham Corporation, priority 1998, published 2003).
Read-outs that look alike come from different tables or passages of the source.

What was measured:
Schisto B 2 = Schisto B 2 (Schistosoma mansoni, UniProt Q95PM1); assay: Cysteine protease inhibition, progress curve method, schistosoma B 2; format: biochemical; conditions: 10 uM Cbz-Phe-Arg-AMC, 100 mM Na acetate pH 5.5, 5 mM cysteine
Experimental: (§1) Standard assay conditions for the determination of kinetic constants used 10 uM fluorogenic peptide substrate, Cbz-Phe-Arg-AMC for the cysteine proteases from Leishmania spp and Schistosoma Mansoni, Cbz-Leu-Arg-AMC for the cysteine proteases from Plasmodium falciparum and Trypanosoma brucei rhodesiensi, and Ac-Lys-Glu-Lys-Leu-Arg-AMC (4 uM final substrate concentration) for the cysteine protease from Trypoanosoma cruzi, and were determined in 100 mM Na acetate at pH 5.5 containing 5 mM cysteine. Stock substrate solutions were prepared at concentrations of […] in DMSO with 10 uM (4 uM for Ac-Lys-Glu-Lys-Leu-Arg-AMC) final substrate concentration in the assays. The final DMSO concentration was 2% and the final volume was 100 uL. All assays were conducted at ambient temperature. Product progress curves were generated over 20 to 30 minutes following formation of AMC product.
(§2) Potential inhibitors were evaluated using the progress curve method. Assays were carried out in the presence of variable concentrations of test compound. Reactions were initiated by addition of enzyme to buffered solutions of inhibitor and substrate. Data analysis was conducted according to one of two procedures depending on the appearance of the progress curves in the presence of inhibitors. For those compounds whose progress curves were linear, apparent inhibition constants (Ki,app) were calculated according to equation 1 (Brandt et al., Biochemitsry, 1989, 28, 140):
(§3) v=VmA/[Ka(1+I/Ki,app)+A] (1)
(§4) Where v is the velocity of the reaction with maximal velocity Vm, A is the concentration of substrate with Michaelis constant of Ka, and I is the concentration of inhibitor.
(§5) [AMC]=vsst+(v0−vss)[1−exp (−kobst)]/kobs (2)
(§6) Where [AMC] is the concentration of product formed over time t, v0 is the initial reaction velocity and vss is the final steady state rate. Values for kobs were then analyzed as a linear function of inhibitor concentration to generate an apparent second order rate constant (kobs/inhibitor concentration or kobs/[I]) describing the time-dependent inhibition. A complete discussion of this kinetic treatment has been fully described (Morrison et al., Adv. Enzymol. Relat. Areas Mol. Biol., 1988, 61, 201).
(§7) Exemplary inhibition data for the compounds used in the present method collected in accordance with the above-described procedure are listed in Table I.

Schisto B 1 = Schisto B 1 (Schistosoma mansoni, UniProt P25792); assay: Cysteine protease inhibition, progress curve method, schistosoma B 1; format: biochemical; conditions: 10 uM Cbz-Phe-Arg-AMC, 100 mM Na acetate pH 5.5, 5 mM cysteine; read-out: Schisto B 1 Ki
Chain of Schisto B 1 (P25792 89-340): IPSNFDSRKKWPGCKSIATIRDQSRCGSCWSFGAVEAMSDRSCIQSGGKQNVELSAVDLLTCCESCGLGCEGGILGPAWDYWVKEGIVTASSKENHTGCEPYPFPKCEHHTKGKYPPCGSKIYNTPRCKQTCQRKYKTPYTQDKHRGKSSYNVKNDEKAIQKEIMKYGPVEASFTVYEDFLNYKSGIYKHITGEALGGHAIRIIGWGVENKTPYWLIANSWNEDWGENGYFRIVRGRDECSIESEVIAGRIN
Experimental: as §1, §2, §3, §4, §5, §6, §7

Rhodazain = Rhodazain (Trypanosoma brucei rhodesiense, UniProt Q95PM0); assay: Cysteine protease inhibition, progress curve method, rhodazain; format: biochemical, Trypanosoma brucei rhodesiensi; conditions: 10 uM Cbz-Leu-Arg-AMC, 100 mM Na acetate pH 5.5, 5 mM cysteine
Chain of Rhodazain (Q95PM0 entry or part of it): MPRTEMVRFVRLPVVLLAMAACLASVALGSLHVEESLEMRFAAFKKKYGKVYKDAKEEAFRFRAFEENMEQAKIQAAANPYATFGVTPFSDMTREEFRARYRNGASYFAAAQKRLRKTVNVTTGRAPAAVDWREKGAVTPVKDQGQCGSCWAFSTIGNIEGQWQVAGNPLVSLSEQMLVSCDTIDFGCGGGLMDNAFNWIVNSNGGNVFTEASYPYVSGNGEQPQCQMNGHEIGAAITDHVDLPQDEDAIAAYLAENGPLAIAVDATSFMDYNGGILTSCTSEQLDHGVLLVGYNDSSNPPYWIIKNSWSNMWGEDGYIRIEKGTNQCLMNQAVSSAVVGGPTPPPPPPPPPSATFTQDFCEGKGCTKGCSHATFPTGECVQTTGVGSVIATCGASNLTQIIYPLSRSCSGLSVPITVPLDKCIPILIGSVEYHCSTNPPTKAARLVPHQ

Cruzain = Cruzain (Trypanosoma cruzi, UniProt P25779); assay: Cysteine protease inhibition, progress curve method, cruzain; format: biochemical; conditions: 4 uM Ac-Lys-Glu-Lys-Leu-Arg-AMC, 100 mM Na acetate pH 5.5, 5 mM cysteine; read-out: Cruzain Ki
Chain of Cruzain (P25779 123-337): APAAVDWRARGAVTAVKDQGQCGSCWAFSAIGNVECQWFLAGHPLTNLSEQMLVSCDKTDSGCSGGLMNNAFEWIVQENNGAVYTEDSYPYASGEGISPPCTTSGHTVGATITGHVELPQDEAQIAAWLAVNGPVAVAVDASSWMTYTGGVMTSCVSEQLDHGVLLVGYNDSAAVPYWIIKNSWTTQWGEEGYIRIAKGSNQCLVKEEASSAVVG
Outline: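 Buffer was 100 mM sodium acetate pH 5.5 with 5 mM cysteine and 2% DMSO, at ambient temperature; reactions started with enzyme, and AMC formation was followed for 20–30 min. Substrates: Leishmania and Schistosoma, 10 uM Cbz-Phe-Arg-AMC; falcipain, 10 uM Cbz-Leu-Arg-AMC; cruzain, 4 uM Ac-Lys-Glu-Lys-Leu-Arg-AMC. Linear curves gave Ki,app; curved ones gave kobs/[I].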

Falcipain 2 = Falcipain 2 (Plasmodium falciparum, UniProt Q8I6U4); assay: Cysteine protease inhibition, progress curve method, falcipain; format: biochemical; conditions: 10 uM Cbz-Leu-Arg-AMC, 100 mM Na acetate pH 5.5, 5 mM cysteine
Chain of Falcipain 2 (Q8I6U4 244-484): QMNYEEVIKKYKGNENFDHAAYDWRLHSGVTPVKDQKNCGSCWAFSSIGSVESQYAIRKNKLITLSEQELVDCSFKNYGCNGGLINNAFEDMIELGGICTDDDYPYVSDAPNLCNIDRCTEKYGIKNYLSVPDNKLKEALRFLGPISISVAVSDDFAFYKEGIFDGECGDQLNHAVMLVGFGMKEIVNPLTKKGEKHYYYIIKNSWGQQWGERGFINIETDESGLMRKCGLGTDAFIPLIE
Experimental: as §1, §2, §3, §4, §5, §6, §7

Chain of Schisto B 2 (Q95PM1 entry or part of it): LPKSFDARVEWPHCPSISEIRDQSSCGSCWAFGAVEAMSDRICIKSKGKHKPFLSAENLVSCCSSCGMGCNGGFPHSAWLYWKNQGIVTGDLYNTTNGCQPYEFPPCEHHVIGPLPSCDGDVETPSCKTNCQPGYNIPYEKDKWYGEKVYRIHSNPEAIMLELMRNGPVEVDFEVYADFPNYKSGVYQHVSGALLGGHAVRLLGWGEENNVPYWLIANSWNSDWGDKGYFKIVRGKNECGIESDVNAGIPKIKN

Row | Ki (Schisto B 2) [nM] | Ki (Schisto B 1) [nM] | Compound | Ki (Rhodazain; Rhodazain Ki (nM)) [nM] | Ki (Cruzain) [nM] | Ki (Falcipain 2) [nM] | Ki (Rhodazain; read-out: Rhodazain Ki) [nM]
1 | 320 | 100 | CC(C)C[C@@H](NC(=O)c1cc2cc(OCCN3CCOCC3)ccc2o1)C(=O)NC1CCCN(C(=O)Cc2cccc(-c3ccccn3)c2)CC1=O (single isomer, unassigned) [Example 4] | – | – | – | –
2 | – | – | CC(C)C[C@@H](NC(=O)c1ccc2[nH]ccc2c1)C(=O)N[C@@H]1CCCN(S(=O)(=O)c2cccc[n+]2[O-])CC1=O [Example 54, 1H-Indole-5-carboxylic acid {(S)-3-methyl-1-[3-oxo-1-(1-oxy-pyridine-2-sulfonyl)-azepan-4-ylcarbamoyl]-butyl}amide] | 4.1 | 5.2 | 7.8 | –
3 | 230 | 61 | CC(C)C[C@H](NC(=O)c1ccc2ccccc2n1)C(=O)N[C@H]1CCCN(S(=O)(=O)c2ccc(F)cc2)CC1=O [Example 83] | – | – | – | –
4 | 1100 | 160 | CC(C)C[C@H](NC(=O)c1cc2ccccc2n1C)C(=O)N[C@H]1CCCN(S(=O)(=O)c2ccc(F)cc2)CC1=O [Example 84] | – | – | – | –
5 | 130 | 45 | COc1ccc2oc(C(=O)N[C@@H](CC(C)C)C(=O)N[C@H]3CCCN(S(=O)(=O)c4ccc(F)cc4)CC3=O)cc2c1 [Example 85] | – | – | – | –
6 | 140 | 77 | CC(C)C[C@H](NC(=O)c1cc2ccccc2o1)C(=O)N[C@H]1CCCN(S(=O)(=O)c2cccc(Cl)c2)CC1=O [Example 88, Benzofuran-2-carboxylic acid-{(S)-1-[1-(3-chloro-benzenesulfonyl)-3-oxo-azepan-4ylcarbamoyl]-3-methyl-butyl}-amide] | – | – | – | –
7 | – | – | COc1cccc2cc(C(=O)N[C@@H](CC(C)C)C(=O)N[C@H]3CCCN(S(=O)(=O)c4ccccc4F)CC3=O)oc12 [Example 93, 7-Methoxy-benzofuran-2-carboxylic acid-{(S)-1-[1-(2-fluoro-benzenesulfonyl)-3-oxo-azepan-4-ylcarbamoyl]-3-methyl-butyl}-amide] | 11 | 11 | 7 | –
8 | 120 | 31 | CC(C)CC(NC(=O)c1cc2ccccc2o1)C(=O)N[C@@H]1CCCN(S(=O)(=O)c2ccc(F)cc2)CC1=O (stereo partly shown) [Example 109] | – | – | – | –
9 | – | – | COc1ccc2oc(C(=O)N[C@@H](CC(C)C)C(=O)N[C@H]3CCCN(S(=O)(=O)c4nccs4)CC3=O)cc2c1 [Example 124, 5-Methoxybenzofuran-2-carboxylic acid {(S)-3-methyl-1-[3-oxo-1-(thiazole-2-sulfonyl)-azepan-4-ylcarbamoyl]-buty}amide] | 2.2 | 2 | 4.9 | –
10 | – | – | CC(C)C[C@H](NC(=O)c1cc2ccccc2s1)C(=O)N[C@H]1CCCN(S(=O)(=O)c2nccs2)CC1=O [Example 127, Benzo[b]thiophene-2-carboxylic acid {(S)-3-methyl-1-[3-oxo-1-(thiazole-2-sulfonyl)-azepan-4-ylcarbamoyl]-butyl}amide] | 4.7 | 2.8 | 8.1 | –
11 | 360 | 78 | Cc1c(C(=O)N[C@@H](CC(C)C)C(=O)N[C@H]2CCCN(S(=O)(=O)c3ccc(Cl)cc3)CC2=O)oc2ccccc12 [Example 134, 3-Methyl-benzofuran-2-carboxylic acid-{(S)-1-[1-(4-chloro-benzenesulfonyl)-3-oxo-azepan-4-ylcarbamoyl]-3-methyl-butyl}-amide] | – | – | – | –
12 | 230 | 64 | COc1cccc(S(=O)(=O)N2CCC[C@H](NC(=O)[C@H](CC(C)C)NC(=O)c3oc4ccccc4c3C)C(=O)C2)c1 [Example 139, 3-Methyl-benzofuran-2-carboxylic acid-{(S)-1-[1-(3-methoxy-benzenesulfonyl)-3-oxo-azepan-4-ylcarbamoyl]-3-methyl-butyl}-amide] | – | – | – | –
13 | – | – | COc1cccc2cc(C(=O)N[C@@H](CC(C)C)C(=O)N[C@@H]3CCCN(S(=O)(=O)c4cccs4)CC3=O)oc12 [Example 144, 7-Methoxy-benzofuran-2-carboxylic acid-{(S)-3-methyl-1-[3-oxo-1-(thiophene-2-sulfonyl)-azepan-4-ylcarbamoyl]-butyl}-amide] | 8.6 | 5.5 | 6.2 | –
14 | – | – | COc1cccc2cc(C(=O)N[C@H](CC(C)C)C(=O)N[C@H]3CCCN(S(=O)(=O)c4ccccn4)CC3=O)oc12 [Example 164] | 5.1 | 4.2 | 2.2 | –
15 | – | – | CC(C)C[C@H](NC(=O)c1cccc2ncccc12)C(=O)N[C@H]1CCCN(S(=O)(=O)c2ccccn2)CC1=O [Example 185, Quinoline-5-carboxylic acid {(S)-3-methyl-1-[3-oxo-1-(pyridine-2-sulfonyl)-azepan-4-ylcarbamoyl]-butyl}-amide] | 2.1 | 1.8 | 4.4 | –
16 | – | – | CC(C)C[C@H](NC(=O)c1cc2ccccc2s1)C(=O)N[C@H]1C[C@H](C)CN(S(=O)(=O)c2ccccn2)CC1=O [Example 197, Benzo[b]thiophene-2-carboxylic acid {(S)-3-methyl-1-[6-methyl-3-oxo-1-(pyridine-2-sulfonyl)-azepan-4-ylcarbamoyl]-butyl}-amide] | 2.3 | 3.1 | 4.1 | –
17 | – | – | COc1ccc2oc(C(=O)N[C@@H](CC(C)C)C(=O)N[C@H]3C[C@H](C)CN(S(=O)(=O)c4ccccn4)CC3=O)cc2c1 [Example 198, 5-Methoxy-benzofuran-2-carboxylic acid {(S)-3-methyl-1-[6-methyl-3-oxo-1-(pyridine-2-sulfonyll)-azepan-4-ylcarbamoyl]-butyl}-amide] | 1.6 | 1.9 | 3.6 | –
18 | – | – | Cc1c(C(=O)N[C@@H](CC(C)C)C(=O)N[C@H]2C[C@H](C)CN(S(=O)(=O)c3ccccn3)CC2=O)oc2ccccc12 [Example 199, 3-Methyl-benzofuran-2-carboxylic acid {(S)-3-methyl-1-[6-methyl-3-oxo-1-(pyridine-2-sulfonyl)-azepan-4-ylcarbamoyl]-butyl}-amide] | 2 | 2.3 | 5.6 | –
19 | – | – | CC(C)C[C@H](NC(=O)c1cc2sccc2s1)C(=O)N[C@H]1CCCN(C(=O)Nc2ccccc2F)CC1=O [Example 218, Thieno[3,2-b]thiophene-2-carboxylic acid {(S)-1-[1-(2-fluoro-phenylcarbamoyl)-3-oxo-azepan-4-ylcarbamoyl]-3-methyl-butyl}-amide] | 2.3 | 5.4 | 3.1 | –
20 | – | – | Cc1csc(C(=O)NC(CC(C)C)C(=O)N[C@H]2CCCN(C(=O)Nc3ccccc3F)CC2=O)c1 (stereo partly drawn) [Example 220, 4-Methyl-2-carboxylic acid {(S)-1-[-(2-fluoro-phenylcarbamoyl)-3-oxo-azepan-4-ylcarbamoyl]-3-methyl-butyl}-amide] | 4.2 | 8.7 | 3.9 | –
21 | – | – | COc1ccc2oc(C(=O)N[C@@H](CC(C)C)C(=O)N[C@H]3CCCN(C(=O)Nc4ccccc4F)CC3=O)cc2c1 [Example 221, 5-Methoxy-benzofuran-2-carboxylic acid {(S)-1-[1-(2-fluoro-phenylcarbamoyl)-3-oxo-azepan-4-ylcarbamoyl]-3-methyl-butyl}-amide] | 1.2 | 3 | 2 | –
22 | – | – | Benzofblthiophene-2-carboxylic acid {(S)-3-methyl-1-[3-oxo-1-(1-oxy-pyridine-2-sulfonyl)-azepan-4-ylcarbamoyl]-butyl}amide [Example 51] | – | 6.4 | 5.1 | 3
